In patent US20040204457A1, “Use of (+)-alpha-(2,3-dimethoxyphenyl)-1-[2-(4-fluorophenyl)ethyl]-4- piperidinemethanol or its prodrug in the treatment of symptoms of dementia and dopamine induced psychosis” (Aventis Pharmaceuticals Inc., priority 2000, published 2004):

Legend:
[1] = test system: scopolamine-stimulated locomotion; assay: scopolamine-stimulated locomotion in rats (60 min activity counts); type: in vivo, rat; settings: for antagonism of scopolamine-stimulated locomotion: 0.03-1 mg/kg
Method: Cholinergic deficiency states include various neurodegenerative diseases such as Alzheimer's disease, Dementia with Lewy Bodies, Charles Bonnet Syndrome, delirium and Parkinson's disease. Experimental Procedure. All procedures were conducted in normal white light conditions. Rats (1 per box) were first acclimated to test boxes (45×22×20 cm; clear polycarbonate with a plastic top) for 90 minutes. […] Testing commenced immediately. […] Each interruption of a photoelectric light beam was recorded as a single activity count by a microprocessor-based control system. Testing took place between 10:00 a.m. and 5:00 p.m., with all groups counterbalanced for time of testing. The experimenter was blind to treatment group during the experiment.

social memory = social memory test in mice (duration of social interaction, baseline vs retest); type: in vivo; settings: 0.1 and 1 mg/kg
Method: Male CD-1 mice (30-35 grams) were first acclimated to the test room for approximately 1 hour. […] For the baseline test, unfamiliar pairs of mice were placed into a test chamber (plexiglas mouse cage with sawdust bedding). The duration of social interaction of the two mice (sniffing, anogenital exploration, nosing, grooming, licking, pawing, playing copulatory attempts) was observed and recorded for a period of five minutes and was registered cumulatively as total seconds of contact. Twenty-four hours later, the animals were given a retest without any drug treatment. At the retest, the now familiar partners from the baseline test were placed into the test chamber for a second confrontation and the duration of social interaction was again measured. Social memory was defined as a significant decrease in duration of social contact from baseline to retest. Testing took place in normal white light conditions between the hours of 8:30 am and 3:00 pm. The experimenter was blind to the treatment group until the completion of the experiment. The results represent combined data (n=36 per group total) from two studies. Data were analyzed using the Mann-Whitney test.

| SMILES | antagonism of scopolamine-stimulated locomotion [1] | Group mean of 60 min activity count totals ([1]; M100907 0.03 + SCOP 0.75, intraperitoneal, n=6) | Group mean of 60 min activity count totals ([1]; M100907 0.1 + SCOP 0.75, intraperitoneal, n=6) | Group mean of 60 min activity count totals ([1]; M100907 0.3 + SCOP 0.75, intraperitoneal, n=6) | Group mean of 60 min activity count totals ([1]; M100907 1 + SCOP 0.75, intraperitoneal, n=6) | effect on social memory (social memory) | Group mean of 60 min activity count totals ([1]; risperidone 0.03 + SCOP 0.75, intraperitoneal, n=8) | Group mean of 60 min activity count totals ([1]; risperidone 0.1 + SCOP 0.75, intraperitoneal, n=8) | Group mean of 60 min activity count totals ([1]; risperidone 0.3 + SCOP 0.75, intraperitoneal, n=8) | Group mean of 60 min activity count totals ([1]; risperidone 1 + SCOP 0.75, intraperitoneal, n=8) | activity level relative to baseline (vehicle) level ([1]; risperidone at the two higher doses + scopolamine) |
| --- | --- | --- | --- | --- | --- | --- | --- | --- | --- | --- | --- |
| COc1cccc([C@H](O)C2CCN(CCc3ccc(F)cc3)CC2)c1OC [M100907, (+)-isomer of α-(2,3-dimethoxyphenyl)-1-[2-(4-fluorophenyl)ethyl]-4-piperidinemethanol] | significantly antagonized | 3181 | 2378 | 2087 | 2231 | significantly enhanced |  |  |  |  |  |
| Cc1nc2n(c(=O)c1CCN1CCC(c3noc4cc(F)ccc34)CC1)CCCC2 [risperidone] | significantly antagonized |  |  |  |  |  | 4615 | 4037 | 1795 | 772 | reduced activity below baseline level |
